From patent US20220315574A1, “Beta-Arrestin-Modulating Compounds and Methods of Using Same” (Duke University, priority 2019, published 2022)
Where a name gives a salt, the structure may show the parent alone.

Assays:
βarr1 = target: T1, βarr1 (Rattus norvegicus, UniProt P29066); experiment: Binding affinity (Kd) by ITC / thermal shift; details: Cmpd-30 by ITC; other three by combination of ITC and thermal shift; read-out: Kd (dissociation constant), βarr1
T1 construct: made in house
Protocol: A high-throughput differential scanning fluorimetry-based thermal shift screen was developed to identify potential βarr small-molecule modulators present in the collection of structurally diverse, drug-like small-molecule compound library described above. The screen was performed using the StepOnePlus™ Real-Time PCR System (Applied Biosystems, Foster City, Calif.). Melting temperature changes were monitored with the use of a reporter fluorescent probe, SYPRO Orange (Thermo Fisher Scientific). Proteins were buffered in a 20 mM HEPES pH 7.5, 100 mM NaCl solution. All reactions were set up in a 96-well plate at final volumes of 20 μl. […] The temperature was raised with a step of 0.5° C. per 30 second from 25° C. to 99° C. and fluorescence readings were taken at each interval. Melting curves were directly exported from the instrument and were analyzed using Applied Biosystems® Protein Thermal Shift™ Software. Melting temperature (Tm) was calculated by plotting the first derivative of the fluorescence emission as a function of temperature [−dF/dT]. […]
ITC measurements were made using the MicroCal iTC200 system (MicroCal, Malvern, Pa.). […] Data were analyzed using MicroCal Origin software program to obtain association constant (Ka=1/Kd), stoichiometry (N), and thermodynamic parameters such as enthalpy (ΔH) and entropy (ΔS) of binding.

wild-type mouse T cells = assay type: cell-based; details: total T cells and CD4/CD8 subpopulations
Protocol: Chemotaxis assays were conducted similarly to those previously described Smith, J. S. et al. C-X-C Motif Chemokine Receptor 3 Splice Variants Differentially Activate Beta-Arrestins to Regulate Downstream Signaling Pathways. Mol Pharmacol 92, 136-150, doi:10.1124/mol.117.108522 (2017)). Briefly, mouse leukocytes, obtained by passing cells isolated from the spleen and subjected to erythrocyte lysis through a 70-μm filter, were suspended in RPMI 1640 medium containing 5% FBS. For the assay, 1×10^6 cells in 100 μl of medium were added to the top chamber of a 6.5 mm diameter, 5-μm pore polycarbonate Transwell insert (Costar). Subsequently, cells were treated with βarr small-molecule modulators or vehicle for 30 min, followed by increasing concentrations of CCL19 suspended in 600 μL of the medium in the bottom chamber for 2 hours at 37° C. T cells migrated to the bottom of chamber were recovered, resuspended, washed, stained with a Live/Dead marker (Aqua Dead, ThermoFisher) and antibodies to cell surface markers (CD3, CD4, CD8, and CD45), and fixed with paraformaldehyde. The number of migrated T cells was measured by flow cytometric analysis with a BD LSRII Flow cytometer. […] A 1:10 dilution of input cells was similarly analyzed. Specific T cell migration was calculated by dividing the number of migrated cells by the number of input cells.

T1 sequence (P29066 whole entry): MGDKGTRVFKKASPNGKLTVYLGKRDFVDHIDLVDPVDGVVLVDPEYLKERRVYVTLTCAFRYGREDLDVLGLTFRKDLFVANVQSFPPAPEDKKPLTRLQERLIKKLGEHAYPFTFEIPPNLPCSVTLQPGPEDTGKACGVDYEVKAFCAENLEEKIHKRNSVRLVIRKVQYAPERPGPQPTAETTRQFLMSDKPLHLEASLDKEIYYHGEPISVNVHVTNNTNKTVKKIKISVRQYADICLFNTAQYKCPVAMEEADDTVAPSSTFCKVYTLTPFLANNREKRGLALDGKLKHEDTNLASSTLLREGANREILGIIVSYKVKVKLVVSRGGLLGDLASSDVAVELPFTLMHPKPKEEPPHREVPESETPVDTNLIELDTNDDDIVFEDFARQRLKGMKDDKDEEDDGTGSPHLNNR

Compound	Kd (βarr1)	CCL19-induced chemotaxis of T cells (wild-type mouse T cells)
C=C1C(=O)C23[C@H](O)C1CC[C@H]2[C@]12COC3(O)[C@@H](O)[C@@H]1C(C)(C)CC[C@@H]2O [Cmpd-5, (1R,2S,10S,11R,15S,18R)-9,10,15,18-tetrahydroxy-12,12-dimethyl-6-methylidene-17-oxapentacyclo[7.6.2.15,8.01,11.02,8]octadecan-7-one]	233 nM	
CN(C)c1n/c(=N/Cc2ccco2)ss1 [Cmpd-30, 5-(furan-2-ylmethylimino)-N,N-dimethyl-1,2,4-dithiazol-3-amine;hydrobromide]	9.3 nM	significantly impair
